Values quoted from earlier work as cited in PMC10275055, “Preventing recurrence in Sonic Hedgehog Subgroup Medulloblastoma using the OLIG2 inhibitor CT-179” (Research Square, 2023).

Test system: OLIG2 dimerization and DNA binding
Parameters: method as in PMID 26517684, PMID 31953259
Conditions: cited from earlier work

SMILES: CCN1CCCC(Nc2cc(C)nc(/N=C(\N)Nc3ccc(Cl)c(Cl)c3)n2)C1 (stereo not shown) [SKOG102]
- effect on OLIG2 dimerization and DNA binding: disrupts OLIG2 dimerization and DNA binding
